Source: patent US3992371A, “Penicillins substituted with heterocyclic and substituted phenyl groups” (Sumitomo Chemical Company, Limited, priority 1973, dated 1976)

Experiments:
[1] = system: Pseudomonas aeruginosa 104; assay: Minimal inhibitory concentration, agar dilution method; assay type: cell-based
Description: When determined according to the agar dilution method, the penicillins (I) afford the minimal inhibitory concentrations against test microorganisms as shown in Table 2.

[2] = system: Pseudomonas; conditions: background statement; cited from earlier work
[3] = system: gram-positive and gram-negative bacteria; conditions: background statement; cited from earlier work

Row | SMILES | MIC [1] [µg/mL] | antimicrobial activity against Pseudomonas [2] | inhibition of the growth of gram-positive and gram-negative bacteria [3]
1 | CC1(C)S[C@@H]2C(NC(=O)C(N)c3ccccc3)C(=O)N2[C@H]1C(=O)O (stereo partly drawn) [Ampicillin, 6-(α-amino-phenylacetamido)penicillanic acid] | > 500 | do not exert any appreciable antimicrobial activity against Pseudomonas | inhibit the growth of various gram-positive and gram-negative bacteria
2 | CC1(C)S[C@@H]2[C@H](NC(=O)C3(N)CCCCC3)C(=O)N2[C@H]1C(=O)O [Cyclacillin, 6-(1-amino-cyclohexanecarboxamide)penicillanic acid] |  | do not exert any appreciable antimicrobial activity against Pseudomonas | inhibit the growth of various gram-positive and gram-negative bacteria
3 | CC1(C)S[C@@H]2[C@H](NC(=O)[C@H](N)C3=CCC=CC3)C(=O)N2[C@H]1C(=O)O [Epicillin] |  | do not exert any appreciable antimicrobial activity against Pseudomonas | inhibit the growth of various gram-positive and gram-negative bacteria
